In one assay the target is T1, ADAR1p110-WT (Homo sapiens, UniProt P55265).
T1 construct: made in house; host or cells: Sf9 cells (baculovirus)
T1 sequence (P55265 1-931 isoform P55265-5): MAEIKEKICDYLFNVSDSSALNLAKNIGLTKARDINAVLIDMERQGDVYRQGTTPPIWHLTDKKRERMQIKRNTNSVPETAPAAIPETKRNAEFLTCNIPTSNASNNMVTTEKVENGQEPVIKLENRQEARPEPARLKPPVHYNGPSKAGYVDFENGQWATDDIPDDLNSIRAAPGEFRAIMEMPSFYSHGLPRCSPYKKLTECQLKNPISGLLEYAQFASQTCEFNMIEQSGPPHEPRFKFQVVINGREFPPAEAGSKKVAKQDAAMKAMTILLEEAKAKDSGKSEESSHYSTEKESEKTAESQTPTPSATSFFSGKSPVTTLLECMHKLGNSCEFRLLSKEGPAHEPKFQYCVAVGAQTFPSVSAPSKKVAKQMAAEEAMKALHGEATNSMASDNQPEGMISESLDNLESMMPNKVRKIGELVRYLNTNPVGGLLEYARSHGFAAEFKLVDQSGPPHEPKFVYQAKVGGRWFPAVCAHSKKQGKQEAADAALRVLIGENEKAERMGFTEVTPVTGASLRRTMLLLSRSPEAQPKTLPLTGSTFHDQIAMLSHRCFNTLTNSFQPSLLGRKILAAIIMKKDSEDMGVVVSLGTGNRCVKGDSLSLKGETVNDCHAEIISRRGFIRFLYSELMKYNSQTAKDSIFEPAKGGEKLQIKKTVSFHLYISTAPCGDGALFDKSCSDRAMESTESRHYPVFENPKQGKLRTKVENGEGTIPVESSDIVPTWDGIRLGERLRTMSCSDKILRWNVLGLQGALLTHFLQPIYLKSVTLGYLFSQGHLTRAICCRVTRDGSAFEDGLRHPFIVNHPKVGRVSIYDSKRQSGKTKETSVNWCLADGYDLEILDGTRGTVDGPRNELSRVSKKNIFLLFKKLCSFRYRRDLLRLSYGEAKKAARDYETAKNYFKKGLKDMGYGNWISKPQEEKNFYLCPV
Kind of assay: Biacore SPR binding to ADAR1p110-WT. From the text:
(§1) FIGS. 5A-5D show Biacore SPR analysis for binding of ADAR1i to ADAR1p110. (FIG. 5A) SPR analysis for binding kinetics of 8 compounds to ADAR1p110-WT. ADAR1 inhibition positive (ADAR1i-13, ADAR1i-120, ADAR1i-124) and negative compounds. (FIG. 5B, FIG. 5C) […] of SPR analysis for binding of ADAR1i-13 and ADAR1i-124 to ADAR1p110-WT and ADAR1p110-E912A as well as negative control proteins, GAPDH and HuR, are shown. […] ADAR1-E912, equivalent of ADAR2 E396, is located in the catalytic center.
(§2) No complete 3-D structure of ADAR1 is currently available. […] The glutamate E912 and E396 in ADAR1 and ADAR2, respectively, plays an important proton transfer function during hydrolytic deamination reaction (42, 43).

The target of the next assay is ADAR1p110-E912A (Homo sapiens, UniProt P55265, E912A). Put plainly: Biacore SPR binding to ADAR1p110-E912A mutant.
Excerpt: as §1, §2

Another assay concerns the target GAPDH (Homo sapiens, UniProt P04406). Put plainly: SPR binding to negative control protein GAPDH.
Excerpt: as §1
A general note: In SPR one partner is held on a chip, and binding of the other changes the refractive index at the surface.

The target of the next assay is HuR (Homo sapiens, UniProt Q15717). Kind of assay: SPR binding to negative control protein HuR.
Excerpt: as §1

The target in the next assay is T2, ADAR2 (Homo sapiens, UniProt P78563).
T2 sequence (P78563 1-741): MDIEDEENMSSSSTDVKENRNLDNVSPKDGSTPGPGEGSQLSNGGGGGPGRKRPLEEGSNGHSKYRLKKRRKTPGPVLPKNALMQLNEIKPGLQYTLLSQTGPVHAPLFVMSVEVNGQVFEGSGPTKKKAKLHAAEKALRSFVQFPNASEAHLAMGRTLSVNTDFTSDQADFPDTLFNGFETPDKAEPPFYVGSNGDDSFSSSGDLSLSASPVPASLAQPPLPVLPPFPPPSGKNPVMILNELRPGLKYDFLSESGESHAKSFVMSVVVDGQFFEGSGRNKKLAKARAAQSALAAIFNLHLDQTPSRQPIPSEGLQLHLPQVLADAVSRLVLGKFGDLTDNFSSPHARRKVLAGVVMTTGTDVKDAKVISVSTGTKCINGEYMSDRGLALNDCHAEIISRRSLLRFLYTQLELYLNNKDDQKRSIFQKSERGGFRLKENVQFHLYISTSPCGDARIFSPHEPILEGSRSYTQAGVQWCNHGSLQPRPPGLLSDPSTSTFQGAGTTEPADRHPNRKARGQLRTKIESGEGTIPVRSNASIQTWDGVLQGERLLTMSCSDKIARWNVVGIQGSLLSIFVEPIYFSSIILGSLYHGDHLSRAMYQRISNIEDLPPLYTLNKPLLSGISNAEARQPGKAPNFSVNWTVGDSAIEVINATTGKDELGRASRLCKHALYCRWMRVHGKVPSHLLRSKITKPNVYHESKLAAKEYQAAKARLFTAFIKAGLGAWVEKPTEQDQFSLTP
Put plainly: Binding to ADAR2 (not shown).

Assay [1] deals with HeLa non-ALT cancer cells. Put plainly: Cancer cell killing / viability (Apo Tox-Glo), HeLa. The assay is classed as cell-based, human. To be noted: for Killing of HeLa cells: result in words. The procedure: (§3) FIGS. 8A-8C show analysis of ADAR1i-124 effects in cancer cells. […] Viability was examined using the Apo Tox-Glo assay system. Control, 0.3% DMSO. Data: mean±SD (n=3). Significant differences identified by two-tailed Student's t-tests: *P<0.05, n.s., not significant. (FIG. 8B) Western blotting analysis of HeLa cells treated with ADAR1i-124 (10 μM).
(§4) FIGS. 9A-9C show dose-dependent killing of cancer cells and activation of IFN signaling. […] YUMM1.7 (FIG. 9B) and HGS2 cells (FIG. 9C) were treated with ADAR1i-124 at 10 μM (12 hrs). RNA samples were analyzed by qRT-PCR to monitor ISG expression levels. Data: mean±SD (n=3). Significant differences were identified by two-tailed Student's t-tests: ***P<0.001.
(§5) Dose-dependent selective killing of telomerase reactivated cancer cells was determined (FIG. 9A).

The next assay concerns ALT U2OS cells. Put plainly: Cell killing / viability, U2OS. The assay is classed as cell-based. The procedure: as §3, §4, §5
The subject of a further assay is YUMM1.7. Kind of assay: Dose-dependent killing, YUMM1.7. Conditions: mouse non-ALT cancer cells. The assay is classed as cell-based. The procedure:
as §4

In another assay the test system is mouse melanoma. Kind of assay: Subcutaneous mouse melanoma growth in B6 black mice. Conditions: 4 treatments starting at Day 8, versus vehicle. The assay is classed as in vivo. An excerpt:
We inoculated mouse melanoma cells subcutaneously in B6 black mice. Then, starting at Day 8, we treated mice for 4 treatments of either vehicle only or ADAR1i-124 (FIG. 11A).

pIC50: −log10 of the molar value. Entries after “also recorded” stand apart in the source; their conditions may differ.

ADAR1p110-E912A, sequence (P55265 296-1226 E912A): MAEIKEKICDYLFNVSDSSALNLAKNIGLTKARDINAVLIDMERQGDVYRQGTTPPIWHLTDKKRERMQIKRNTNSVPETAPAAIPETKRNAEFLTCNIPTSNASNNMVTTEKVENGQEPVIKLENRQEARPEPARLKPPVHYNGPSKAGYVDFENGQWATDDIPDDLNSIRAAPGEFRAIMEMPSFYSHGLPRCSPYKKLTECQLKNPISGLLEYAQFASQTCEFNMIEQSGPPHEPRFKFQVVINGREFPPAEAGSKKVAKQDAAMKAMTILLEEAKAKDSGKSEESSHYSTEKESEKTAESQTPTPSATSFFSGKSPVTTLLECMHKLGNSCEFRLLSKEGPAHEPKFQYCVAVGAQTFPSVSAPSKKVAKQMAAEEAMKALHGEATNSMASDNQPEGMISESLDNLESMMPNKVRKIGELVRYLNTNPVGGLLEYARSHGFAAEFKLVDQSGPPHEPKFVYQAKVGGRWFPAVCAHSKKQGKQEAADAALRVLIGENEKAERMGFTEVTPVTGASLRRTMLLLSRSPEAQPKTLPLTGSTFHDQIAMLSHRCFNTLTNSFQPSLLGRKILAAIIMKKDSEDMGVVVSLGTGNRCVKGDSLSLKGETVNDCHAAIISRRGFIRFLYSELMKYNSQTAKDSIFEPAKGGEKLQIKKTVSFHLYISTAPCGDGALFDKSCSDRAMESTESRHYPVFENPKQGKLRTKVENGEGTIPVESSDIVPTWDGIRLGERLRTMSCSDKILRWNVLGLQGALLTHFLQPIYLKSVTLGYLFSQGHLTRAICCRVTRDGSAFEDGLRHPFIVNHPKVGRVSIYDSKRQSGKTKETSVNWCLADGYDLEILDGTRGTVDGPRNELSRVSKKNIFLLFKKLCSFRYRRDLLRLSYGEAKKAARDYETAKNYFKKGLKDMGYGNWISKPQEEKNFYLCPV
HuR, sequence (Q15717 whole entry, species assumed): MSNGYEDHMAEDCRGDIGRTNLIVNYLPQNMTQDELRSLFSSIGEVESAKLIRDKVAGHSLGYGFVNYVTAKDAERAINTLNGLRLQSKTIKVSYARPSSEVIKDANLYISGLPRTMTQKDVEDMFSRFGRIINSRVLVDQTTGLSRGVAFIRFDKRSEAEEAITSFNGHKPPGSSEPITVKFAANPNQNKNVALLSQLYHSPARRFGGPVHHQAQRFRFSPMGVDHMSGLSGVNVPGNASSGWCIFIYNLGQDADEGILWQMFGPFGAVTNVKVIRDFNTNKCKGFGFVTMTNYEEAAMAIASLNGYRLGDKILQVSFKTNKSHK
GAPDH, sequence (P04406 whole entry, species assumed): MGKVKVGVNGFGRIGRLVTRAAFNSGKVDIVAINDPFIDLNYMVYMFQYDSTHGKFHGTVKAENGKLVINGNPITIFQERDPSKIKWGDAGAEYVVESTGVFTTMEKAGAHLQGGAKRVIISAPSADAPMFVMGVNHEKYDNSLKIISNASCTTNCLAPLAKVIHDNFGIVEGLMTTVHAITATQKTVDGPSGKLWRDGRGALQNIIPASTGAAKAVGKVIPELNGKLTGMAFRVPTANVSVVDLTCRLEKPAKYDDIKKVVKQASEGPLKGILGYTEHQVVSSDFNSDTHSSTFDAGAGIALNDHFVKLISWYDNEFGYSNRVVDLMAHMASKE

Regarding `N#Cc1ccc(NC(=O)c2sc3ccccc3c2Cl)cc1` [ADAR1i-13, 3-chloro-N-(4-cyanophenyl)-1-benzothiophene-2-carboxamide], the “Binding to ADAR1p110-WT” value on ADAR1p110-WT is listed as “direct binding”. Also, the “Binding to ADAR1p110-E912A mutant” value on ADAR1p110-E912A is “did not bind”. The “Binding to GAPDH” value at GAPDH is “did not bind”. Besides, the “Binding to HuR” value on HuR was “did not bind”. The “Binding to ADAR2” value at ADAR2 is on record as “bound also to ADAR2”. In [1], the “Killing of HeLa cells” value is on record as “killed selectively”.

For `N#Cc1ccccc1NC(=O)c1sc2ccccc2c1Cl` [ADAR1i-120], the “Binding to ADAR1p110-WT” value on ADAR1p110-WT is “direct binding”. The “Killing of HeLa cells” value in [1] is given as “killed selectively”.

As for `N#Cc1ccc(NC(=O)c2c(Cl)c3ccccc3n2CO)cc1` [ADAR1i-124], the “Binding to ADAR1p110-WT” value on ADAR1p110-WT was “direct binding”. The “Binding to ADAR1p110-E912A mutant” value on ADAR1p110-E912A is reported as “a binding kinetics different from that with ADAR1p110-WT”. Besides, the “Binding to GAPDH” value on GAPDH was “did not bind”. At HuR, the “Binding to HuR” value was “did not bind”. Moreover, the “Binding to ADAR2” value on ADAR2 is “bound also to ADAR2”. The “Viability of HeLa cells” value in [1] (10 μM, Apo Tox-Glo, control 0.3% DMSO) was “selectively reduced viability”. For the same molecule, in assay [1] (Homo sapiens, HeLa, read-out: IC50 for selective killing of HeLa cells), the negative logarithm of the IC50 (pIC50) (in general, the negative decadic logarithm of the IC50, by convention in mol/L) was about 6.40. The “Killing of HeLa cells” value in assay [1] is “killed selectively; also recorded: dose-dependently killed”. Further, the “Killing of U2OS cells” value in the assay on ALT U2OS cells is on record as “unaffected”. Moreover, the “Killing of YUMM1.7 cells” value in the assay with YUMM1.7 was “dose-dependently killed”. Besides, the “Growth of mouse melanomas in vivo” value in the assay with mouse melanoma is recorded as “significantly suppressed growth of mouse melanomas”.

These data come from patent US20260272878A1, “ADAR1 INHIBITORS AND USES THEREOF” (THE WISTAR INSTITUTE OF ANATOMY AND BIOLOGY, priority 2023, published 2026).
